Experimental findings from ChEMBL document CHEMBL4184301, “Two new coumarins and a new xanthone from the leaves of Rhizophora mucronata” (Bioorg Med Chem Lett, 2018) are described below.

As a reminder, the IC50 is the midpoint of a concentration-inhibition curve. Low readings indicate greater potency in that assay, high ones weaker potency in that assay. By CC50 is commonly meant the concentration at which the toxic effect on the cells reaches its halfway point. Low values mean greater toxicity to the cells, high ones lower toxicity to the cells.

The test system of one data set is HeLa. Kind of data set: Antiproliferative activity against human HeLa cells after 48 hrs by CCK8 assay. Type of data set: functional, cell-based. (Tetrazolium dyes change colour on reduction, which living cells bring about.)
A further data set has as its system HL-60. Kind of data set: Antiproliferative activity against human HL60 cells after 48 hrs by CCK8 assay. In kind it is functional, cell-based. To be noted: HL-60, 48 h.
A short description of data set [1]: Cytotoxicity against mouse NIH/3T3 cells after 48 hrs by CCK8 assay. In kind it is cell-based, NIH3T3.
A short description of data set [2]: Selectivity index, ratio of CC50 for mouse […] cells to IC50 for human HL60 cells. In kind it is toxicity. To be noted: NIH/3T3 cells (printed […]) and HL60 cells, read-out: Ratio CC50/IC50.

Take `C/C=C(\C)C(=O)c1c(O)c(/C(=C/C(=O)O)c2ccccc2)c2c(c1OC)C=CC(C)(C)O2`: the IC50 was found to be 36.4 µM with HeLa and 2.2 µM with HL-60. In addition, the CC50 at 48 h in data set [1] is 41.1 µM. Moreover, the selectivity ratio in data set [2] worked out at 19.2.

On to `C[C@H]1Oc2c3c(c4c(-c5ccccc5)cc(=O)oc4c2C(=O)[C@@H]1C)OC(C)(C)C=C3`, for which the IC50 in the data set with HeLa came to 8.3 µM; with HL-60 it was 35.3 µM.

Consider `C[C@@H]1C(=O)c2c(c3c(c4c(-c5ccccc5)cc(=O)oc24)OC(C)(C)C=C3)O[C@@H]1C`, for which the results for the concentration for half-maximal inhibition (IC50) with HeLa and in the data set on HL-60 were 21.6 µM and greater than 60 µM, respectively.

With `CC(C)=CCc1c(O)cc2oc3c(O)cccc3c(=O)c2c1O`, the IC50 came out at 37.1 µM in the data set on HeLa and 6.3 µM in the data set with HL-60.

`C=C(C)C(O)Cc1c(O)cc2c(=O)c3cccc(O)c3oc2c1O` (stereo unspecified): the IC50 with HeLa amounted to 14.5 µM; in the data set on HL-60, 36.8 µM.

`C/C=C(\C)C(=O)c1c(OC)c2c(c3c(-c4ccccc4)cc(=O)oc13)OC1C2C1(C)C` (stereo unspecified): the 50% inhibitory concentration (IC50) with HeLa worked out at 29.9 µM; in the data set with HL-60 it was 2.6 µM. This compound displayed a CC50 at 48 h in data set [1] of 22.3 µM. Besides, in data set [2], the selectivity ratio was 8.6.

Consider `CO[C@H]1c2c(c3c(c4c(-c5ccccc5)cc(=O)oc24)OC(C)(C)C=C3)O[C@H](C)[C@H]1C`, for which the IC50 in the data set with HeLa came to 3.8 µM; in the data set on HL-60, 12.9 µM.

With `C/C=C(/C)C(=O)c1c2c(c(OC)c3c(-c4ccccc4)cc(=O)oc13)C=CC(C)(C)O2`, the IC50 was 42.8 µM in the data set with HeLa and 18.3 µM in the data set on HL-60.

As to `CC1(C)C=Cc2c(cc3oc4c(O)cccc4c(=O)c3c2O)O1`, the IC50 was determined as 26 µM in the data set on HeLa and 2.7 µM with HL-60. In addition, in data set [1], half-maximal cytotoxicity (CC50 at 48 h) was put at 25.3 µM. Besides, the selectivity ratio in data set [2] turned out to be 9.4.

In the case of `C[C@H]1Oc2c3c(c(C(=CC(=O)O)c4ccccc4)c(O)c2C(=O)[C@@H]1C)OC(C)(C)C=C3` (mixture of isomers), the IC50 in the data set with HeLa is greater than 60 µM; in the data set on HL-60, 24.5 µM.

For the compound `COC(=O)C=C(c1ccccc1)c1c(O)c2c(c3c1OC(C)(C)C=C3)O[C@H](C)[C@@H](C)C2=O` (mixture of isomers), the IC50 in the data set on HeLa stood at 33 µM; with HL-60, 10.7 µM.

For `C[C@@H]1C(=O)c2c(O)c(C(=CC(=O)O)c3ccccc3)c3c(c2O[C@@H]1C)C=CC(C)(C)O3` (mixture of isomers), the IC50 in the data set on HeLa turned out to be 21.2 µM; in the data set with HL-60 it was 35.6 µM.

`O=C(O)c1cccc(O)c1O` [2,3-DIHYDROXYBENZOIC ACID]: the IC50 with HeLa and with HL-60 was greater than 60 µM each time.

In the case of `O=c1cc(-c2ccc(O)c(-c3c(O)cc(O)c4c(=O)cc(-c5ccc(O)cc5)oc34)c2)oc2cc(O)cc(O)c12` [AMENTOFLAVONE], the IC50 with HeLa is 5.3 µM; in the data set with HL-60 it was 51.2 µM.

`O=c1cc(-c2ccc(O)cc2)oc2cc(O)cc(O)c12` [APIGENIN]: the figures for the IC50 in the data set on HeLa and in the data set with HL-60 were 21.3 µM and 22.3 µM, respectively.

For `CC(C)=CCc1c2c(c3oc(=O)cc(-c4ccccc4)c3c1O)C(=O)[C@H](C)[C@@H](C)O2` [BRASIMARIN C], the IC50 was found to be 4.4 µM in the data set on HeLa and 10.1 µM with HL-60.

Consider `CC1(C)C=Cc2c(cc3oc4c(O)c(O)ccc4c(=O)c3c2O)O1` [JACAREUBIN], for which the IC50 was 4.8 µM in the data set on HeLa and 1 µM in the data set with HL-60. In data set [1], the CC50 at 48 h was determined as 10.2 µM. Also, in data set [2], the selectivity ratio stood at 10.2.

For `CO[C@@]12[C@H](COC(N)=O)C3=C(C(=O)C(C)=C(N)C3=O)N1C[C@@H]1N[C@@H]12` [MITOMYCIN], the IC50 was found to be 1.13 µM in the data set on HeLa and 0.19 µM in the data set on HL-60.

Take `CC(=O)O[C@H]1C(=O)[C@@]2(C)[C@H]([C@H](OC(=O)c3ccccc3)[C@]3(O)C[C@H](OC(=O)[C@H](O)[C@@H](NC(=O)c4ccccc4)c4ccccc4)C(C)=C1C3(C)C)[C@]1(OC(C)=O)CO[C@@H]1C[C@@H]2O` [PACLITAXEL]: the IC50 with HeLa worked out at 0.023 µM; with HL-60, 0.0026 µM.
